These results are taken from patent publication EP0708091A1, “Indoloylguanidine derivatives” (SUMITOMO PHARMACEUTICALS COMPANY, LIMITED, priority 1994, dated 1996).

Molecules are shown by their SMILES. Counter-ions that a name gives are not always drawn.

In this test the target is T1, Na⁺/H⁺ exchanger (Rattus norvegicus, UniProt P26431).
T1 construct: using the vascular smooth muscle cells isolated from the rat thoracic aorta; endogenous in cells; host or cells: primary vascular smooth muscle cells isolated from rat thoracic aorta
T1 sequence (P26431 whole entry): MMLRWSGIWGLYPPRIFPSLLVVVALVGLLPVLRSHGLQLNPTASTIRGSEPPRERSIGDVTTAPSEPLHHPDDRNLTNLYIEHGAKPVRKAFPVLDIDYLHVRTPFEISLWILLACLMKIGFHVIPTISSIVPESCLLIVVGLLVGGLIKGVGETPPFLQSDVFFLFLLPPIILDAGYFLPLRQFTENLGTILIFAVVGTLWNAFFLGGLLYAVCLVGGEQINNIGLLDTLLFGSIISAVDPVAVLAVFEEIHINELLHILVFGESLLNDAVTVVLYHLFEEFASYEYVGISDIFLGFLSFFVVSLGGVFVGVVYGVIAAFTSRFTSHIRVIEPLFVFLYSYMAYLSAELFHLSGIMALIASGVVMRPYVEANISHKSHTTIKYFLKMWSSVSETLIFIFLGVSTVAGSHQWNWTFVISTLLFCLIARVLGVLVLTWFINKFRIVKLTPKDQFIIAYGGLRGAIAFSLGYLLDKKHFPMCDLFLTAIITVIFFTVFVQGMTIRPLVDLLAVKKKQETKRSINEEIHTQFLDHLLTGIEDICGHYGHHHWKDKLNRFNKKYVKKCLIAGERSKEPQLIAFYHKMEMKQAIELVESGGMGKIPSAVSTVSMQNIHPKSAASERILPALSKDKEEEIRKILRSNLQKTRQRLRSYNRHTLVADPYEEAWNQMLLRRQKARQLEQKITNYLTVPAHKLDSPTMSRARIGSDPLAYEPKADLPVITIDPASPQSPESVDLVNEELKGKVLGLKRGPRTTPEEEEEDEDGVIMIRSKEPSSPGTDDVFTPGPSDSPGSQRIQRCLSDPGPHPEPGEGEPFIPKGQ
Briefly: Inhibition of Na+/H+ exchanger activity in vitro (change in cell viability during acid loading). As to conditions: minimum effective concentration (MEC), vascular smooth muscle cells isolated from the rat thoracic aorta. The format is cell-based. As for the experimental part:
Inhibition of Na+/H+ exchanger activity in vitro Method:
The experiment was performed by modifying the method of Mungre et al. described in Exp. Cell Res., 193, 236 (1991). That is, inhibition of the Na⁺/H⁺ exchanger activity was evaluated by the change in cell viability during acid loading, using the vascular smooth muscle cells isolated from the rat thoracic aorta.
The compounds of the present invention shown in Examples were evaluated by the minimum effective concentration (MEC) for the inhibition of the Na⁺/H⁺ exchanger activity.

Take `NC(N)=NC(=O)c1nc(Cl)c(N2CCCCCC2)nc1N` [5-Hexamethylene amiloride, reference compound]: the “Inhibition of Na^+/H^+ Exchanger MEC” value is listed as 0.3 µM.

Turning to `CN(C)c1nc(N)c(C(=O)N=C(N)N)nc1Cl` [Dimethyl amiloride, reference compound], the “Inhibition of Na^+/H^+ Exchanger MEC” value was found to be 3.0 µM. The result for `CN(C)CCCOc1ccc(Cl)c2cc(C(=O)NC(=N)N)n(C)c12` [Example 74, 4-Chloro-7-(3-dimethylaminopropoxy)-l-methyl-2-indoloylguanidine dihydrochloride] reads 0.1 µM. The result for `N=C(N)NC(=O)c1cc2ccccc2n1CCN1CCCC1` [Example 144, 1-[2-[(N-Pyrrolidinyl)ethyl]-2-indoloylguanidinedihydrochloride] reads more than 10 µM; that for `Cn1c(C(=O)NC(=N)N)cc2c(Cl)cc(OCCN)cc21` [Example 175, 6-(2-Aminoethoxy)-4-chloro-l-methyl-2-indoloylguanidine dihydrochloride], 0.03 µM.
